Data from US10576097B2, “URLC10-derived peptide and vaccine containing same” (ONCOTHERAPY SCIENCE, INC., priority 2014, dated 2020).

Columns and labels:
peptide-pulsed C1R-A11 = test: In vitro CTL induction, IFN-gamma ELISPOT assay (HLA-A*1101); type: cell-based, human; conditions: CTLs induced from HLA-A*1101-positive donors, against peptide-pulsed C1R-A11, compared with control
Text: (§1) Monocyte-derived dendritic cells (DCs) were used as the antigen-presenting cell to induce a cytotoxic T lymphocyte (CTL) response against peptides presented on human leukocyte antigens (HLAs). As described in the other sections, DCs were generated in vitro (Nakahara S et al., Cancer Res 2003, 63(14): 4112-8). Specifically, peripheral-blood mononuclear cells isolated from healthy volunteers (HLA-A*1101-positive) with the Ficoll-Paque plus solution (Pharmacia) were separated by attaching to plastic tissue culture dishes (Becton Dickinson) and concentrated as a monocyte fraction. The monocyte-concentrated population was cultured in the presence of 1000 IU/ml granulocyte macrophage colony-stimulating factor (R&D System) and 1000 IU/ml interleukin(IL)-4 (R&D System) in an AIM-V medium (Invitrogen) containing 2% heat-inactivated autologous serum (AS). After seven days of culturing, the cytokine-induced DCs were pulsed with 20 micro-g/ml each of the synthesized peptides in an AIM-V medium at 37 degrees C. for three hours in the presence of 3 micro-g/ml beta 2-microglobulin. The generated cells appeared to express on their cell surface DC-associated molecules such as CD80, CD83, CD86 and HLA class II (data not shown). Next, these peptide-pulsed DCs were inactivated by X-ray irradiation (20 Gy), and mixed in a 1:20 ratio with autologous CD8^+ T cells obtained by positive selection using the CD8 Positive Isolation Kit (Dynal). These culture products were seeded in a 48-well plate (Corning). Each well was made to contain 1.5×10^4 peptide-pulsed DCs, 3×10^5 CD8^+ T cells and 10 ng/ml IL-7 (R&D System) in 0.5 ml of the AIM-V/2% AS medium. Three days later, these culture products were added with a final concentration of 20 IU/ml IL-2 (CHIRON). On day 7 and day 14, T cells were further stimulated with peptide-pulsed autologous DCs. The DCs were prepared every time by the same method as above. On day 21, after the third peptide stimulation, CTLs were examined against the peptide-pulsed C1R-A11 by a human interferon (IFN)-gamma enzyme-linked immunospot (ELISPOT) assay (Tanaka H et al., Br J Cancer 2001, 84(1): 94-9; Umano Y et al., Br J Cancer 2001, 84(8): 1052-7; Uchida N et al., Clin Cancer Res 2004, 10(24): 8577-86; Suda T et al., Cancer Sci 2006, 97(5): 411-9; Watanabe T et al., Cancer Sci 2005, 96(8): 498-506).
(§2) To examine specific CTL activity, an IFN-gamma ELISPOT assay and an IFN-gamma enzyme-linked immunosorbent assay (ELISA) were performed. Specifically, peptide-pulsed C1R-A11 (1×10^4 cells/well) was prepared as the stimulator cell. The induced CTLs, i.e., CTL lines and CTL clones, were used as the responder cell. The IFN-gamma ELISPOT assay and IFN-gamma ELISA were performed according to the manufacturer's manual.

[1] = system: peptide-pulsed C1R-A11 cells; test: IFN-gamma ELISA of CTL lines and CTL clones (HLA-A*1101); type: cell-based, human
Method: (§3) CTLs were propagated in culture using methods similar to those disclosed by Riddell et al. (Walter E A et al., N Engl J Med 1995, 333(16): 1038-44; Riddell S R et al., Nat Med 1996, 2(2): 216-23). The CTLs were co-cultured in a total of 25 ml AIM-V medium containing 5% AS (AIM-V/5% AS) and 40 ng/ml anti-CD3 antibody with two types of Mitomycin C-treated human B lymphoblastoid cell lines at 5×10^6 cells/flask. One day after beginning of the culturing, 120 IU/ml IL-2 was added to the culture. On days 5, 8 and 11, a fresh AIM-V/5% AS medium containing 30 IU/ml IL-2 was added to the culture (Tanaka H et al., Br J Cancer 2001, 84(1): 94-9; Umano Y et al., Br J Cancer 2001, 84(8): 1052-7; Uchida N et al., Clin Cancer Res 2004, 10(24): 8577-86; Suda T et al., Cancer Sci 2006, 97(5): 411-9; Watanabe T et al., Cancer Sci 2005, 96(8): 498-506).
Dilution of CTLs was carried out to make 0.3, 1 and 3 cells/well in 96 round-bottomed microtiter plates (Nalge Nunc International). The CTLs were co-cultured with two types of Mitomycin C-treated human B lymphoblastoid cell lines at 1×10^4 cells/well in a total of 150 micro-l/well AIM-V/5% AS medium with 30 ng/ml anti-CD3 antibody and 125 IU/ml IL-2. Ten days later, IL-2 was added to the medium at 50 micro-1/well to reach a final concentration of 125 IU/ml. […]

[2] = system: COS7 cells transfected with both full-length URLC10 and the HLA-A*1101 gene; test: Specific CTL activity against target cells expressing URLC10 and HLA-A*1101; type: cell-based, African green monkey
Text: (§4) A cDNA encoding the open-reading frame of a target gene or HLA-A*1101 was amplified by PCR. The PCR-amplified product was cloned into an expression vector. Either or both of the target gene-expressing vector and the HLA-A*1101-expressing vector were transfected into COS7, which is a cell line negative for the target gene and HLA, using Lipofectamine 2000 (Invitrogen) following the manufacturer's recommended protocol. Two days after transfection, the transfected cells were harvested using versene (Invitrogen), and used as the target cell for CTL activity assay (5×10^4 cells/well).
(§5) The CTL clone established against URLC10-A11-10-132 (SEQ ID NO: 13) was investigated for its ability to recognize target cells expressing URLC10 and the HLA-A*1101 molecule. COS7 cells transfected with both full-length URLC10 and the HLA-A*1101 gene (a specific model of target cells expressing URLC10 and the HLA-A*1101 gene) were prepared as the target cell. COS7 cells transfected with either full-length URLC10 or HLA-A*1101 were prepared as the control.

peptide-pulsed C1R-A03 = test: In vitro CTL induction, IFN-gamma ELISPOT assay (HLA-A*0301); type: cell-based, human; conditions: CTLs induced from HLA-A*0301-positive donors, against peptide-pulsed C1R-A03, compared with control
Text: as §1, with “(HLA-A*0301-positive)” for “(HLA-A*1101-positive)”, “C1R-A03” for “C1R-A11”
as §2, with “C1R-A03” for “C1R-A11”

[3] = system: C1R-A03 cells pulsed with the respective peptide; test: IFN-gamma ELISA of CTL lines and CTL clones (HLA-A*0301); type: cell-based, human
Method: as §3
Dilution of CTLs was carried out to make 1 and 10 cells/well in 96 round-bottomed microtiter plates (Nalge Nunc International). The CTLs were co-cultured with two types of Mitomycin C-treated human B lymphoblastoid cell lines at 1×10^4 cells/well in a total of 150 micro-l/well 5% AS-containing AIM-V (AIM-V/5% AS) medium with 30 ng/ml anti-CD3 antibody and 125 IU/ml IL-2. Ten days later, IL-2 was added to the medium at 50 micro-l/well to reach a final concentration of 125 IU/ml. On day 14, the CTL activity was tested, and the CTL clones were propagated using the same method as described above (Uchida N et al., Clin Cancer Res 2004, 10(24): 8577-86; Suda T et al., Cancer Sci 2006, 97(5): 411-9; Watanabe T et al., Cancer Sci 2005, 96(8): 498-506).
as §2, with “C1R-A03” for “C1R-A11”

[4] = system: COS7 cells transfected with both full-length URLC10 and the HLA-A*0301 gene; test: Specific CTL activity against target cells expressing URLC10 and HLA-A*0301; type: cell-based, African green monkey
Text: as §4, with “HLA-A*0301” for “HLA-A*1101”, “HLA-A*0301-expressing” for “HLA-A*1101-expressing”, “[…],” for “COS7,”
as §5, with “URLC10-A03-11-131” for “URLC10-A11-10-132”, “31)” for “13)”, “HLA-A*0301” for “HLA-A*1101”

[5] = CTL line against peptide-pulsed versus non-pulsed target cells

| Sequence | peptide-specific CTL activity (IFN-gamma production) (peptide-pulsed C1R-A11) | IFN-gamma production of CTL clone ([1]; CTL clone by limiting dilution, against peptide-pulsed C1R-A11 cells) | IFN-gamma production of CTL line [1, 5] | CTL activity of peptide-stimulated CTL clone against control cells ([2]; COS7 cells transfected with either full-length URLC10 or HLA-A*1101) | CTL activity of peptide-stimulated CTL clone ([2]; against COS7 cells expressing both URLC10 and HLA-A*1101) | peptide-specific CTL activity (IFN-gamma production) (peptide-pulsed C1R-A03) | IFN-gamma production of CTL clone ([3]; CTL clone by limiting dilution, against peptide-pulsed C1R-A03 cells) | IFN-gamma production of CTL line [3, 5] | CTL activity of peptide-stimulated CTL clone against control cells ([4]; COS7 cells transfected with either full-length URLC10 or HLA-A*0301) | CTL activity of peptide-stimulated CTL clone ([4]; against COS7 cells expressing both URLC10 and HLA-A*0301) |
| --- | --- | --- | --- | --- | --- | --- | --- | --- | --- | --- |
| IFPRFFMVAK (a peptide derived from URLC10) [SEQ ID NO 13, URLC10-derived 10mer peptide, start position 132] | potent IFN-gamma production | Potent IFN-gamma production | potent IFN-gamma production | significant specific CTL activity was not detected | potent CTL activity |  |  |  |  |  |
| KIFPRFFMVAK (a peptide derived from URLC10) [SEQ ID NO 31, URLC10-derived 11mer peptide, start position 131] |  |  |  |  |  | potent IFN-gamma production | Potent IFN-gamma production | potent IFN-gamma production | significant specific CTL activity was not detected | potent CTL activity |
